Measured values from publication PMC10044725, “Antioxidant, Anti-Inflammatory and Anti-Diabetic Activities of Tectona grandis Methanolic Extracts, Fractions, and Isolated Compounds” (Antioxidants, 2023).
Marks after values point to notes of the source that are not given here.

Experiments:
[1] = Ferric reducing antioxidant power (FRAP) assay; details: Trolox equivalent
Method: The FRAP assay was determined in accordance with the instructions for the FRAP kit. The total antioxidant activity values were estimated using the Trolox equivalent antioxidant capacity test. Initially, the detection concentration of methanolic extract and different fractions was 80 μg/mL, and the detection concentration of compounds (1–23) was 50 μM. Then, 190 μL of FRAP working reagent was mixed with 10 μL sample and incubated at room temperature for 20 min. The absorbance was then measured using a microplate reader at 593 nm, and the scavenging activity was calculated according to Equation (3). The blank control group used DMSO to replace the sample. […] The analysis was performed in triplicates, 0.8054, 0.0134 was a constant.

[2] = tested on: α-glucosidase; assay: α-Glucosidase inhibition assay (pNPG); type: biochemical; details: for Inhibitory Rate (%): at a concentration of 50 µM; for IC50: compounds
Method: The inhibitory effect on α-glucosidase was measured according to the previous report method with slight modifications. The 20 mM sample dissolved in DMSO was diluted to 50 μM in PBS, 10 μL sample was mixed with 50 μL of 0.1 μ/mL α-glucosidase solution in 0.1 M phosphate buffer (pH 6.5) in a 96-well microplate and 10 μL PBS was used as a blank control. The mixture was incubated at 37 °C for 10 min before adding 40 µL of 5 mM 4-nitrophenyl-α-D-glucopyranoside to each well. After 30 min of incubation at 37 °C, the reaction was terminated by adding 50 μL of 0.1 M Na2CO3 to this mixture. The released 4-nitrophenol absorbance measurements were carried out using a microplate reader (SpectraMax190, USA) at 405 nm.

[3] = ABTS radical cation scavenging assay (Trolox equivalent)
Method: The ABTS radical cation (ABTS•+) scavenging activities were conducted in accordance with the instructions for the ABTS kit. The total antioxidant activity values were estimated using the Trolox equivalent antioxidant capacity test. The detection concentration of methanolic extract and different fractions was 80 μg/mL, and the detection concentration of compounds (1–23) was 50 μM. […] Then, 190 μL of ABTS working reagent was mixed with 10 μL sample and incubated at room temperature for 5 min. The absorbance was then measured using a microplate reader at 734 nm, and the scavenging activity was calculated according to Equation (2). The blank control group used DMSO to replace the sample. […] The analysis was performed in triplicates, 1.424, 0.0012 was a constant.

[4] = DPPH free radical scavenging assay; details: half scavenging concentration; for EC50: isolated compounds, read-out: DPPH Assay SC50
Method: The DPPH free radical scavenging activities of T. grandis methanolic extract, different fractions and its compounds were conducted according to Dr. Yang et al.. […] The absorbance was measured using a microplate reader at 517 nm, and ascorbic acid was used as a positive control. The DPPH scavenging activity was calculated according to the following formula: Scavenging activity (%) = [1 − (A1 − A2)/(A3 − A4)] × 100% (1) where A1 is the OD value of the tested samples, A2 is the OD value of the sample control, A3 is the OD value of the negative control and A4 is the OD value of the blank control. The analysis was performed in triplicates and the results were described as SC50 values.

[5] = tested on: pBR322 DNA; assay: Prevention of AAPH-induced DNA oxidative damage; details: AAPH 20 mM; p < 0.0001 vs model
Method: The effects of T. grandis methanolic extract, different fractions and its compounds 15, 19 and 23 on the prevention of DNA oxidative damage were carried out using the method of Han et al.. Initially, 8 μL pBR322 DNA (50 μg/mL) in PBS (0.1 M, pH 6.8) was mixed with different concentrations of T. grandis fractions and its compounds (12 μL) and incubated in water at 37 °C for 30 min. Then, 5 μL AAPH (20 mM) was added to the mixture and the reaction continued for 60 min. The control group used the same volume of PBS (0.1 M, pH 6.8) to replace AAPH. The pre-treated samples were mixed with 5 × DNA loading buffer, and the mixture (8 μL) was taken for 1.0% agarose gel electrophoresis for 25 min. After electrophoresis, the gels were stained with ethidium bromide for 20 min. Finally, images were taken using a DNA gel imaging system (ChampChemi 610, Beijing sage creation Co., Ltd. Beijing, China).

[6] = methanolic extract and fractions at 80 μg/mL

SMILES	Inhibitory Rate (%) [2]	IC50 [2]	EC50 [4]	FRAP Assay ([1]; compounds at 50 μM)	ABTS Assay ([3]; compounds at 50 μM)	FRAP Assay [1, 6]	DPPH Assay SC50 ([4]; methanolic extract and fractions, ascorbic acid positive control)	ABTS Assay [3, 6]	concentration at which a protective effect against DNA oxidative damage begins [5]
O=C1O[C@H]([C@@H](O)CO)C(O)=C1O [Ascorbic acid, reference compound]	–	–	13.45 ± 0.02 µM	1.01 ± 0.06 ^a mmol Trolox/L	0.85 ± 0.00 ^a mmol Trolox/L	1.35 ± 0.02 ^b mmol Trolox/L	3.39 ± 0.98 ^e µg/mL	0.99 ± 0.00 ^a mmol Trolox/L	–
COc1cc(C(O)C(CO)Oc2c(OC)cc(/C=C/CO)cc2OC)cc(OC)c1O (stereo not drawn) [Compound 20, 7S,8R-syringylglycerol-8-O-4′-(synapyl alcohol) ether]	40.30 ± 0.76 ^c %	> 50 µM	8.66 ± 0.43 µM	0.29 ± 0.00 ^b mmol Trolox/L	0.67 ± 0.01 ^b mmol Trolox/L	–	–	–	–
COc1cc(C2Oc3c(OC)cc(CCCO)cc3C2CO)ccc1O (stereo not drawn) [Compound 19, rel-(2α,3β)-7-O-methylcedrusin]	57.40 ± 1.32 ^bc %	–	6.17 ± 0.06 µM	0.25 ± 0.01 ^b mmol Trolox/L	0.85 ± 0.03 ^a mmol Trolox/L	–	–	–	5.0 mM
COc1ccc(-c2cc(=O)c3c(O)cc(O[C@@H]4O[C@H](C(=O)O)[C@@H](O)[C@H](O)[C@H]4O)cc3o2)cc1 [Compound 2, acacetin-7-O-β-glucuronide]	31.35 ± 6.46 ^c %	> 50 µM	17.4 ± 1.08 µM	0.03 ± 0.01 ^c mmol Trolox/L	0.92 ± 0.01 ^a mmol Trolox/L	–	–	–	–
O=C(O)C1OC(Oc2cc(-c3cc(=O)c4c(O)cc(O)cc4o3)ccc2O)C(O)C(O)C1O (stereo not drawn) [Compound 11, luteolin-3′-O-glucuronide]	4.57 ± 4.37 ^e %	> 50 µM	–	0.01 ± 0.00 ^c mmol Trolox/L	0.65 ± 0.00 ^b mmol Trolox/L	–	–	–	–
O=C(O)c1c[nH]c2ccccc12 [Compound 16, 1H-indole-3-carboxylic acid]	12.53 ± 0.76 ^d %	> 50 µM	12.3 ± 0.53 µM	0.28 ± 0.01 ^b mmol Trolox/L	0.78 ± 0.01 ^a mmol Trolox/L	–	–	–	–
COC(=O)[C@H]1O[C@@H](Oc2cc(-c3cc(=O)c4c(O)cc(O)cc4o3)ccc2O)[C@H](O)[C@@H](O)[C@@H]1O [Compound 5, vitegnoside]	69.67 ± 2.20 ^b %	19.3 µM	9.92 ± 0.36 µM	1.02 ± 0.01 ^a mmol Trolox/L	0.92 ± 0.00 ^a mmol Trolox/L	–	–	–	–
COC(=O)[C@H]1O[C@@H](Oc2cc(O)c3c(=O)cc(-c4ccc(O)cc4)oc3c2)[C@H](O)[C@@H](O)[C@@H]1O [Compound 4, apigenin-7-O-β-D-glucuronide methyl ester]	68.54 ± 2.90 ^b %	14.2 ± 0.34 µM	31.5 ± 1.75 µM	0.02 ± 0.00 ^c mmol Trolox/L	0.21 ± 0.01 ^b mmol Trolox/L	–	–	–	–
C[C@H]1O[C@H](O[C@H]2[C@H](O)[C@@H](O)[C@@H](O[C@H]3[C@H](O)[C@@H](O)C(O)O[C@@H]3CO)O[C@@H]2CO)[C@H](O)[C@@H](O)[C@@H]1N[C@H]1C=C(CO)[C@@H](O)[C@H](O)[C@H]1O (stereo partly drawn) [Acarbose, reference compound]	99.53 ± 0.01 ^a %	–	–	–	–	–	–	–	–
COc1ccc(/C=C/C=O)cc1O [Compound 17, 3-hydroxy-4-methoxycinnamaladehyde]	8.69 ± 1.94 ^de %	> 50 µM	–	–	0.80 ± 0.01 ^a mmol Trolox/L	–	–	–	–

The next lines start with results.

Inhibitory Rate (%) [2]	IC50 [2]	EC50 [4]	SMILES	FRAP Assay ([1]; compounds at 50 μM)	ABTS Assay ([3]; compounds at 50 μM)	FRAP Assay [1, 6]	DPPH Assay SC50 ([4]; methanolic extract and fractions, ascorbic acid positive control)	ABTS Assay [3, 6]	concentration at which a protective effect against DNA oxidative damage begins [5]
1.77 ± 4.08 ^e %	> 50 µM	–	O=C1c2cc(CO)ccc2C(=O)c2c(O)cccc21 [Compound 10, 1-hydroxy-6-hydroxymethyl anthraquinone]	0.01 ± 0.01 ^c mmol Trolox/L	0.13± 0.00 ^c mmol Trolox/L	–	–	–	–
3.13 ± 4.06 ^e %	> 50 µM	–	Cc1ccc2c(c1O)C(=O)c1cccc(O)c1C2=O [Compound 9, isozyganein]	–	–	–	–	–	–
29.06 ± 1.86 ^cd %	> 50 µM	5.22 ± 0.19 µM	O=c1cc(-c2ccc(O)cc2)oc2cc(O)cc(O)c12 [Compound 3, apigenin]	0.01 ± 0.01 ^c mmol Trolox/L	0.05 ± 0.00 ^d mmol Trolox/L	–	–	–	–
1.27 ± 0.25 ^e %	–	–	O=c1c(O)c(-c2ccc(O)c(O)c2)oc2cc(O)cc(O)c12 [Compound 8, quercetin]	0.01 ± 0.00 ^c mmol Trolox/L	1.05 ± 0.01 ^a mmol Trolox/L	–	–	–	–
53.04 ± 0.36 ^bc %	–	–	COc1cc(C)cc2c1C(=O)c1c(O)cc(O)cc1C2=O [Compound 12, 1-O-methylemodin]	–	0.03 ± 0.00 ^d mmol Trolox/L	–	–	–	–
85.13 ± 0.81 ^ab %	3.04 µM	16.9 ± 0.67 µM	COc1cc(O)c2c(=O)c(O)c(-c3ccc(O)c(O)c3)oc2c1 [Compound 7, rhamnetin]	0.33 ± 0.04 ^b mmol Trolox/L	0.92 ± 0.07 ^a mmol Trolox/L	–	–	–	–
20.03 ± 2.44 ^c %	> 50 µM	25.8 ± 0.57 µM	Cc1cc2c(cc1O)C(=O)c1ccccc1C2=O [Compound 14, 3-hydroxy-2-methyl-9,10-anthraquinone]	0.03 ± 0.00 ^c mmol Trolox/L	0.09 ± 0.06 ^d mmol Trolox/L	–	–	–	–
12.96 ± 2.08 ^d %	> 50 µM	22.1 ± 1.24 µM	O=c1cc(-c2ccc(O)c(O)c2)oc2cc(O)cc(O)c12 [Compound 6, luteolin]	0.37 ± 0.05 ^b mmol Trolox/L	0.99 ± 0.07 ^a mmol Trolox/L	–	–	–	–
20.58 ± 1.30 ^c %	> 50 µM	–	COc1cc(O)c2c(c1O)C(=O)c1cc(C)ccc1C2=O [Compound 22, austrocortirubin]	–	0.32 ± 0.01 ^bc mmol Trolox/L	–	–	–	–
